Columns and labels:
caspase-3/7 in T cells = test: Caspase-Glo 3/7 Assay in stimulated CD4+ T cells; type: cell-based, human; settings: day three of culture; untreated cells = 100%; three experiments; FIG. 8
Method: FIG. 8: Caspase-graph: Luminescence value of untreated cells was defined as 100% Caspase activity. Due to their specific luminescence value the caspase activity of treated cells were calculated accordingly. Induction of Caspase activityx[%]=Caspase activityx[%]−Caspase activityuntreated[%]. Means±SEM (Standart Error of the Mean=Standard deviation/radical(n)) of three different experiments are presented.
In addition, an alternative method was performed for screening of group-D derivatives (FIG. 8). It was decided to analyse the activity of caspase-3/7 in T cells, which were treated with group-D derivatives. As compared to AnnexinV/PI staining this new method might have some advantages: • It is an easier protocol. Therefore there are fewer possibilities for individual errors. • Increased activity of caspase-3 is very specific for apoptosis. Therefore this method is very sensitive for the detection of apoptosis. There is no interfering influence of necrotic cells. • The measurement is done in duplicate. In this way there is an internal control.
The Caspase-Glo 3/7 Assay (Promega™) was used. This assay is based on a caspase dependent luminescent signal. Protocol: CD4^+ T cells were isolated from human blood by magnetic beads (Dynal). T lymphocytes were stimulated in complete RPMI-1640 medium (RPMI-1640+10% FCS+100 U/ml Penicillin/Streptomycin+3 mM L-Glutamin) for 3 days with coated antibodies to CD3 (0.04 μg/ml) and soluble CD28 antibodies (PharMingen™; 1 μg/ml) plus IL-2 (R & D Systems™, Wiesbaden, Germany; 40 U/ml) in 96-well plates. Cells were treated with different group-D derivatives or were left untreated. At day three of culture Caspase-3/7 Assay was performed. 25 μl of Caspase-Glo 3/7 reagent was added to each well. Probes were mixed gently for 2 minutes and incubated at room temperature for 30 minutes. Finally 100 μl of each probe were transferred to a white walled 96-well luminometer plate and analysed in a plate-reading luminometer. The added reagent contains a specific substrate of caspase-3 and caspase-7. Cleavage of this substrate by activated caspase-3 results in luciferase reaction. Luminescence is proportional to the amount of caspase activity present (FIG. 8)

Solubility in water = type: physicochemical
human CD4+ T Lymphocytes = test: Induction of apoptosis in CD3/CD28 costimulated T lymphocytes, annexin V / propidium iodide FACS; type: cell-based; settings: for induction of apoptosis: 5 μM added at day 0, CD3/CD28 costimulated T lymphocytes; for induction of apoptosis / induction of apoptosis compared with azathioprine or 6-mercaptopurine mediated induction: 3, 4 or 5 days, FIGS. 2-4; for induction of apoptosis compared with azathioprine or 6-mercaptopurine mediated induction: 5 μM; for apoptosis induction: FIGS. 5 and 6, at least three experimental data sets, primary T cells of different donors
Method: Human peripheral blood mononuclear cells (PBMC) from 4 buffycoats were isolated using Ficoll-Hypaque gradients. PBMC were further purified using CD4 monoclonal antibodies attached to immunomagnetic microbeads according to the protocol provided by the manufacturer (Miltenyi Biotec). […] Azathioprine, 6-Mercaptopurine, V1, V2, V3, V4 or V5 were added to the T cell cultures at day 0 at a final concentration of 5 μM. To determine induction of apoptosis in these T lymphocytes, cells were analyzed by FACS. For FACS analysis, apoptotic cells were detected by staining with annexin V and propidium iodide using the Annexin V FITC Apoptosis Detection Kit I (PharMingen). In brief, T cells were washed twice in PBS, and the pellet was resuspended in annexin V binding buffer (PharMingen) at a concentration of 10^6 cells per milliliter. Annexin V FITC and propidium iodide were added (5 μl of each per 10^5 cells), Samples were gently mixed and incubated for 15 minutes at room temperature in the dark before FACS analysis.
• Annexin-positive, propidium iodide-negative cells (black bars) present the rate of early apoptotic cells. Annexin-positive, propidium iodide-positive cells (white bars) present late apoptotic or necrotic cells. • Induction of apoptosis=(Rate of apoptotic cells after indicated treatment)−(Rate of apoptosis of untreated cells) • V1, V2 and V3 were tested in 4 independent experiments. V4 and V5 were tested in 2 independent experiments.

Rac1 = Rac1 (Homo sapiens, UniProt P63000); settings: cited from earlier work

Row | Compound | induction of caspase activity (caspase-3/7 in T cells) | induction of apoptosis (human CD4+ T Lymphocytes) | further results
1 | Cc1cc(CNC(=O)[C@@H]2OC3C(COP(=O)(O)OP(=O)(O)OP(=O)(O)O)OC(n4cnc5c(=S)[nH]c(N)nc54)C3O2)nn1C (some centres unmarked) [06D-14] | promising | – | –
2 | CC(=O)OC[C@H]1O[C@@H](n2cnc3c(S)nc(NCCCCCCNC(C)=S)nc32)C(OC(C)=O)C1OC(C)=O (some centres unmarked) [V4, 2′,3′,5′-Triacetyl-N-2-(6″-thioacetamide-hexyl)-6-Thioguanosine] | – | not able to induce apoptosis | solubility in water (Solubility in water): not soluble in water
3 | TAMRA-EDA-6-Thio-GTP [V5] | – | able to induce apoptosis | induction of apoptosis compared with azathioprine or 6-mercaptopurine mediated induction (human CD4+ T Lymphocytes): more pronounced and appeared earlier
4 | CC(=O)NCCCCCCNc1nc(O)c2ncn([C@@H]3O[C@H](COC(C)=O)C(OC(C)=O)C3OC(C)=O)c2n1 (some centres unmarked) [V3, 2′,3′,5′,o-Triacetyl-N-2-(Acetyl-6″-aminohexyl)-guanosine] | – | not able to induce apoptosis | solubility in water (Solubility in water): not soluble in water
5 | Aspartate-2,3′-EDA-6-Thio-GTP [05B-1] | less effective than 05B-0 | – | –
6 | 2′,3′-EDA-6-Thio-GTP [05B-0] | very effective | able to induce apoptosis | induction of apoptosis compared with azathioprine or 6-mercaptopurine mediated induction (human CD4+ T Lymphocytes): more pronounced and appeared earlier; apoptosis induction (human CD4+ T Lymphocytes): strongest candidate drug for apoptosis induction
7 | Nc1nc2c(ncn2[C@@H]2O[C@H](COP(=O)(O)OP(=O)(O)OP(=O)(O)O)[C@@H](O)[C@H]2O)c(=S)[nH]1 [6-Thio-GTP, 6-thioguanosine triphosphate] | able to induce caspase activity | – | affinity to Rac1, fold less in comparison with GTP (Rac1): 20 fold; apoptosis induction (human CD4+ T Lymphocytes): on average was not able to induce apoptosis
8 | NCCCCCCNc1nc2c(ncn2[C@@H]2O[C@H](CO)[C@@H](O)[C@H]2O)c(=O)[nH]1 [V2, N-2-(6″-Aminohexyl)-guanosine] | – | not able to induce apoptosis | –
9 | Cn1ccc(NC(=O)[C@@H]2OC3C(COP(=O)(O)OP(=O)(O)OP(=O)(O)O)OC(n4cnc5c(=S)[nH]c(N)nc54)C3O2)n1 (some centres unmarked) [06D-13] | promising | – | –

— patent US8114986B2, “Analogous compounds of 6-thioguanosine triphosphate, their use in medical fields and processes for their preparation” (Giuliani International Limited, priority 2005, dated 2012)
